Laboratory results: patent publication US20200038438A1, “ANGSTROM SILVER INJECTION FOR CANCER INHIBITION, PREPARATION METHOD AND APPLICATION THEREOF” (Shenzhen AMCAN Medical Biotechnology Limited, priority 2018, published 2020)
Values joined by “and” are separate entries in the source; they are usually repeats but may differ in a detail not shown here. Equal values may be shown once.

What was measured:
[1] = test system: tumor tissue cell, Liver cancer; assay: 3D drug susceptibility detection (three-dimensional co-culture system), liver cancer patient; format: cell-based, human; conditions: person
From the text: A second exemplary embodiment is shown below. • 3D drug susceptibility detection result

tumor tissue cell, NSCLC = assay: 3D drug susceptibility detection (three-dimensional co-culture system), NSCLC patient; format: cell-based, human
From the text: A third exemplary embodiment is shown below. • 3D drug susceptibility detection result

[2] = test system: tumor tissue cell, Lung Tumor; assay: 3D drug susceptibility detection (three-dimensional co-culture system), lung tumor patient; format: cell-based, human; conditions: serial No. 0018
From the text: A fourth exemplary embodiment is shown below. • 3D drug susceptibility detection result

[3] = test system: human hepatocellular carcinoma cells HepG2; assay: CellTiter-Glo cell viability, 72 hours; format: cell-based; conditions: duplicate wells
From the text: (§1) A first exemplary embodiment is shown a detection of the angstrom silver on a proliferation influence of human non-small cell lung cancer cells A549 and human hepatocellular carcinoma cells HepG2.
(§2) Reagents and consumables shown below: 1. HepG2, provided by HD Biosciences (Shanghai) Co., Ltd., and passed a mycoplasma detection; 2, F 12K culture medium, American Gibco, Art. No.: 21127-022; 3. EMEM culture medium, American ATCC, Art. No.: 30-2003; 4. Fetal bovine serum (FBS), American Hyclone, Art. No.: CH30160.03; 5. Penicillin-streptomycin liquid, American Invitrogen, Art. No.: CH15140-122; 6. DG-5 (25 Ang) and DG-5 solvents, DG-6 (25 Ang) and DG-6 solvents respectively provided by Shenzhen AMCAN Medical Biotechnology Limited; 7. […] DMSO, American Sigma, Art. No.: D4540; 9. 96-well cell culture plate, American Corning, Art. No.: 3610; 10. CellTiter-Glo Luminescent Cell Viability Assay, American Promega, Art. No.: G7571; 11. Plate reader, American Perkin Elmer, EnVision Multilabel Plate Reader.
(§3) Cell culture medium: 1. A549 culture medium: including 10% fetal bovine serum and F 12K culture medium with 100 U penicillin and 100 μg/mL streptomycin; 2. HepG2 culture medium: including 10% fetal bovine serum and EMEM culture medium with 100 U penicillin and 100 μg/mL streptomycin.
(§4) 3. Only before starting an experiment, in the sterile condition, the prepared dg-5 gradient concentration solution is diluted 2 times by full cell culture medium. At this time, the gradient concentration of a compound to be measured includes 150 ppm, 15 ppm, 1.5 ppm, 0.15 ppm and 0.015 ppm, which is a 2-by-compound solution to be used to treat cells.
(§5) 4. Only before starting the experiment, in the sterile condition, the prepared dg-5 gradient concentration solution was diluted 100 times by the full cell culture medium. At this time, the gradient concentration of the compound to be measured includes 2 μM, 200 nM, 20 nM, 2 nM and 0.2 nM, which is a 2-by-compound solution to be used to treat cells.
(§6) 1. The cell is inoculated in a 96-well cell culture plate the day before the treatment of the compound, while an inoculation density is shown in the experimental design above, and an inoculation volume was 100 μL per hole.
(§7) 2. The next day, the prepared 2-by-compound solution is added to the 96-well cell culture plate according to an arrangement diagram of the compound, and each hole is added to 100 μL.
(§8) 3. Gently oscillating the 96-well cell culture plate and placing it in a 37° C. incubator to continue cultivating for 72 hours.
(§9) 4. After reaching a designated incubation time, a prepared reagent is added to the 96-well cell culture plate according to a CellTiterGlo's reagent specification, and then it is fully blended under a room temperature, finally avoid light incubation for 10 minutes.
(§10) 5. Placing the 96-well cell culture plate in a plate reader to analyze it, and setting it to read chemical luminescence and record data.
(§11) Readout in each hole needs to be converted to a cell viability. The cell viability can be calculated by the following formula: […]

[4] = test system: human non-small cell lung cancer cells A549; assay: CellTiter-Glo cell viability, 72 hours; format: cell-based; conditions: duplicate wells
From the text: as §1, §2, §3, §4, §5, §6, §7, §8, §9, §10, §11

| SMILES | drug efficacy, 3D drug susceptibility detection [1] | drug efficacy, 3D drug susceptibility detection (tumor tissue cell, NSCLC; serial No. 0015) | drug efficacy, 3D drug susceptibility detection [2] | also measured |
| --- | --- | --- | --- | --- |
| O=c1[nH]cc(F)c(=O)[nH]1 [5-fluorouracil] | Ineffective | worst group of efficacy | worst group of efficacy |  |
| C=CC(=O)Nc1cc(Nc2nccc(-c3cn(C)c4ccccc34)n2)c(OC)cc1N(C)CCN(C)C [AZD9291] |  | best group of efficacy | best group of efficacy |  |
| CN[C@@H]1C[C@H]2O[C@@](C)([C@@H]1OC)n1c3ccccc3c3c4c(c5c6ccccc6n2c5c31)C(=O)NC4 [STSP] |  |  |  | Percentage of cell growth ([3]; HepG2, 0.1 nM): 109.0% and 103.4%; Percentage of cell growth ([3]; HepG2, 1 nM): 88.4% and 86.2%; Percentage of cell growth ([3]; HepG2, 100 nM): 17.5% and 22.2%; Percentage of cell growth ([3]; HepG2, 1000 nM): 9.7% and 11.2%; Percentage of cell growth ([4]; A549, 0.1 nM): 124.6% and 126.9%; Percentage of cell growth ([4]; A549, 1 nM): 99.8% and 99.2%; Percentage of cell growth ([4]; A549, 10 nM): 68.8% and 68.5%; Percentage of cell growth ([4]; A549, 100 nM): 28.5% |
| N.N.O=C([O-])C1(C(=O)[O-])CCC1.[Pt+2] [carboplatin] | Ineffective |  |  |  |
| CC(=O)O[C@@]12CO[C@@H]1C[C@H](O)[C@@]1(C)C(=O)[C@H](O)C3=C(C)[C@@H](OC(=O)[C@H](O)[C@@H](NC(=O)OC(C)(C)C)c4ccccc4)C[C@@](O)([C@@H](OC(=O)c4ccccc4)[C@H]21)C3(C)C [docetaxel] | second efficacy |  |  |  |
| C#Cc1cccc(Nc2ncnc3cc(OCCOC)c(OCCOC)cc23)c1 [erlotinib] |  | worst group of efficacy | worst group of efficacy |  |
| COc1cc2ncnc(Nc3ccc(F)c(Cl)c3)c2cc1OCCCN1CCOCC1 [gefitinib] |  | worst group of efficacy | worst group of efficacy |  |
| Nc1ccn([C@@H]2O[C@H](CO)[C@@H](O)C2(F)F)c(=O)n1 [gemcitabine] |  | best group of efficacy |  |  |
| Cc1ccc(NC(=O)c2ccc(CN3CCN(C)CC3)cc2)cc1Nc1nccc(-c2cccnc2)n1 [imatinib] | better |  |  |  |
| CC(=O)O[C@H]1C(=O)[C@@]2(C)[C@H]([C@H](OC(=O)c3ccccc3)[C@]3(O)C[C@H](OC(=O)[C@H](O)[C@@H](NC(=O)c4ccccc4)c4ccccc4)C(C)=C1C3(C)C)[C@]1(OC(C)=O)CO[C@@H]1C[C@@H]2O [paclitaxel] | second efficacy |  |  |  |
| Nc1nc2[nH]cc(CCc3ccc(C(=O)N[C@@H](CCC(=O)O)C(=O)O)cc3)c2c(=O)[nH]1 [pemetrexed] | Ineffective | worst group of efficacy | worst group of efficacy | drug efficacy, 3D drug susceptibility detection (tumor tissue cell, NSCLC; serial No. 0015, listed as permetrexed): very poor efficacy |
| CNC(=O)c1cc(Oc2ccc(NC(=O)Nc3ccc(Cl)c(C(F)(F)F)c3)cc2)ccn1 [sorafenib] | Ineffective |  |  |  |
